Results: patent US20040009210A1, “Wound management products incorporating cationic compounds” (Kimberly-Clark Worldwide, Inc., priority 2002, published 2004)

Assay: Effective charge density of the cationic compound (measured)
Assay type: physicochemical

effective charge density (measured): about 1300 microequivalents/gram
Structure (SMILES): CCCCCCCC/C=C\CCCCCCCC(=O)NCC[N+]1=C(CCCCCCC/C=C\CCCCCCCC)N(C)CC1.COS(=O)(=O)[O-] [cationic softener, 1-methyl-2-Noroleyl-3-oleyl amidoethyl imidazolinium methosulfate]
